Assay results published in patent US6706725B1, “Vitamin D analogues” (Galderma Research & Development, S.N.C., priority 1999, dated 2004).

Biological target: T1, human VDR receptor (Homo sapiens, UniProt P11473)
T1 construct: expressed in transfected cells; host or cells: HeLa
T1 sequence (P11473 1-427): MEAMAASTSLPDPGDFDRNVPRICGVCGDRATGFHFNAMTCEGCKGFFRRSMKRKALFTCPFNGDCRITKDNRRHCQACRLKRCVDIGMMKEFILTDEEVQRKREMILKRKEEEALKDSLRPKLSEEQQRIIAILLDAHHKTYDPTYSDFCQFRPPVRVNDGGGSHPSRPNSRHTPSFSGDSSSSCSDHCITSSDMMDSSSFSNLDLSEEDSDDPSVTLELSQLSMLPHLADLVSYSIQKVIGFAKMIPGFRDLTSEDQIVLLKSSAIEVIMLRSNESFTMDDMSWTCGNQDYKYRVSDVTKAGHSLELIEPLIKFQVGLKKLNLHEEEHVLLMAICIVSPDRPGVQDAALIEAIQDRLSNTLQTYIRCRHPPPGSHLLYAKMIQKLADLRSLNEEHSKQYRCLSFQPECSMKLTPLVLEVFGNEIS
Test: VDR agonist activity by co-transfection in HeLa cells (human VDR expression vector + p240Hase-CAT reporter, CAT ELISA)
Type: cell-based
Details: HeLa cell line co-transfected with human VDR and rat 24-hydroxylase promoter-CAT reporter; treatment for 18 hours; read-out: AC 50 (dose required to achieve 50% of the maximum activity of the product)
Method: By way of example, the VDR agonist activity can be tested on the HeLa cell line by co-transfection with an expression vector for the human VDR receptor and the reporter plasmid p240Hase-CAT which contains the region −1399 to +76 of rat 24-hydroxylase promoter, cloned upstream of the frame encoding the chloramphenicol-acetyl-transferase (CAT) gene. 18 hours after co-transfection, the test product is added to the medium. After treatment for 18 hours, assay of the CAT activity in the cell lysates is carried out by an ELISA test. The results are expressed as percentages of the effect normally observed with 10^−7M calcitriol.
The agonist activity can also be characterized in the co-transfection system, by determining the dose required to reach 50% of the maximum activity of the product (AC50).
The VDR agonist activity was tested on the HeLa cell line, by co-transfection of an expression vector of the human VDR receptor and of the reporter plasmid p240Hase-CAT which contains the region −1399 to +76 of the rat 24-hydroxylase promoter, cloned upstream of the coding frame of the chloramphenicol-acetyl-transferase (CAT) gene. 18 hours after co-transfection, the test product is added to the medium. After treatment for 18 hours, the CAT activity of the cell lysates is assayed by an ELISA test. The results are expressed as a percentage of the effect normally observed with 10^−7 M of calcitriol.
The agonist activity was characterized in this co-transfection system by determining the dose required to achieve 50% of the maximum activity of the product (AC50).

Row | Compound | AC50 [nM]
1 | CCC(O)(CC)CC/C=C(\C)c1ccc(COc2ccc(CO)c(CO)c2)s1 [Example 1, (E)-7-[5-(3,4-bis-Hydroxymethyl-phenoxymethyl)-2-thienyl]-3-ethyloct-6-en-3-ol] | 192
2 | CCC(O)(CC)CC/C=C(\C)c1cc(COc2ccc(CO)c(CO)c2)cs1 [Example 2, (E)-7-[4-(3,4-bis-Hydroxymethyl-phenoxymethyl)-2-thienyl]-3-ethyloct-6-en-3-ol] | 267
3 | CC/C(=C\CCC(O)(CC)CC)c1cccc(COc2ccc(CO)c(CO)c2)n1 [Example 4, (E)-7-[6-(3,4-bis-Hydroxymethyl-phenoxymethyl)-2-pyridyl]-3-ethylnon-6-en-3-ol] | 294
4 | CC/C(=C\CCC(O)(CC)CC)c1ccc(COc2ccc(CO)c(CO)c2)s1 [Example 6, (E)-7-[5-(3,4-bis-Hydroxymethyl-phenoxymethyl)-2-thienyl]-3-ethylnon-6-en-3-ol] | 61
5 | CC/C(=C\C=C\C(O)(CC)CC)c1ccc(COc2ccc(CO)c(CO)c2)s1 [Example 7, (4E,6E)-7-[5-(3,4-bis-Hydroxymethyl-phenoxymethyl)-2-thienyl]-3-ethylnona-4,6-dien-3-ol] | 17
6 | CC/C(=C\CCC(O)(CC)CC)c1ccc(CCc2ccc(CO)c(CO)c2)s1 [Example 8, (E)-7-{5-[2-(3,4-bis-Hydroxymethyl-phenyl)ethyl]-2-thienyl}-3-ethylnon-6-en-3-ol] | 29
7 | CC/C(=C\CCC(O)(CC)CC)c1cc(CCc2ccc(CO)c(CO)c2)cs1 [Example 10, (E)-7-[4-[2-(3,4-bis-Hydroxymethyl-phenyl)ethyl]-2-thienyl)-3-ethylnon-6-en-3-ol] | 23
8 | CC/C(=C\CCC(O)(CC)CC)c1csc(COc2ccc(CO)c(CO)c2)c1 [Example 12, (E)-7-[5-(3,4-bis-Hydroxymethyl-phenoxymethyl)-3-thienyl]-3-ethylnon-6-en-3-ol] | 655
9 | CC/C(=C\C=C\C(O)(C(F)(F)F)C(F)(F)F)c1ccc(COc2ccc(CO)c(CO)c2)s1 [Example 13, (3E,5E)-6-[5-(3,4-bis-Hydroxymethyl-phenoxymethyl)-2-thienyl]-1,1,1-trifluoro-2-trifluoromethylocta-3,5-dien-2-ol] | 78
